Assay results from ChEMBL document CHEMBL4627384, “l-Thyroxin and the Nonclassical Thyroid Hormone TETRAC Are Potent Activators of PPARγ” (J Med Chem, 2020).
Active and inactive are the calls of the source. The calls are words filed in the database; no cut-off is given here.

Assays:
[1] = biological target: T1, Peroxisome proliferator-activated receptor gamma (Homo sapiens) (UniProt P37231); assay: Agonist activity at recombinant human pFA-CMV fused PPARgamma LBD expressed in HEK293T cells transfected with pFR-luciferase plasmid and pRL-SV40 plasmid at 15 uM incubated for 14 to 16 hrs in presence of PPARgamma antagonist GW9662 by dual glo luciferase reporter gene assay; assay type: cell-based; settings: HEK-293T
T1 sequence (whole entry): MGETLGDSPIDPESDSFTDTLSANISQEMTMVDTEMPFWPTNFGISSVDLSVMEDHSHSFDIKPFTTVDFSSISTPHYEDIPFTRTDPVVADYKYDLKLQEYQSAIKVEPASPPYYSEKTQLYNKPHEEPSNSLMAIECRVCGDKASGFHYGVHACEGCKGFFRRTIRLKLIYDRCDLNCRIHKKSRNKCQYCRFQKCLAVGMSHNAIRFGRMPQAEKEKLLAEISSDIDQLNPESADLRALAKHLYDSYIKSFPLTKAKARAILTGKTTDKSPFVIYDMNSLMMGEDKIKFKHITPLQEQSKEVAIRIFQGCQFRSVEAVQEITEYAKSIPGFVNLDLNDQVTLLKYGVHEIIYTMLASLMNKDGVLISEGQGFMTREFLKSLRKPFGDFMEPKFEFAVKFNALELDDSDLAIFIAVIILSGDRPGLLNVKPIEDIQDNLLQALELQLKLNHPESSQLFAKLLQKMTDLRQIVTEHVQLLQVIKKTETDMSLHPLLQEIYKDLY

[2] = biological target: T1, Peroxisome proliferator-activated receptor gamma (Homo sapiens); assay: Agonist activity at PPARgamma in human HepG2 cells assessed as induction of CD36 mRNA expression at 10 to 30 uM incubated for 8 hrs by qPCR analysis; assay type: cell-based
[3] = biological target: T1, Peroxisome proliferator-activated receptor gamma (Homo sapiens); assay: Agonist activity at PPARgamma in human HepG2 cells assessed as induction of CD36 mRNA expression at 30 uM incubated for 8 hrs in presence of PPARgamma antagonist GW9662 by qPCR analysis; assay type: cell-based
[4] = biological target: T1, Peroxisome proliferator-activated receptor gamma (Homo sapiens); assay: Agonist activity at PPARgamma in human HepG2 cells without THRA knockdown assessed as induction of CD36 expression at 30 uM incubated for 8 hrs in by Western blot analysis; assay type: cell-based
[5] = Drug metabolism in human HepG2 cells assessed as 2-(4-(4-hydroxy-3,5-diiodophenoxy)-3,5-diiodophenyl)acetic acid formation at 10 uM incubated for 24 hrs by LC-MS analysis; assay type: ADME, cell-based; settings: hepg2, 24 h
[6] = Drug metabolism in human HepG2 cells assessed as (S)-2-amino-3-(4-(4-hydroxy-3-iodophenoxy)-3,5-diiodophenyl)propanoic acid formation at 10 uM incubated for 24 hrs by LC-MS analysis; assay type: ADME, cell-based; settings: hepg2, 24 h
[7] = biological target: Luciferin 4-monooxygenase (Photinus pyralis) (UniProt P08659); assay: Activation of firefly luciferase expressed in HEK293T cells at 15 uM incubated for 14 to 16 hrs by reporter gene assay; assay type: cell-based; settings: HEK-293T
[8] = tested on: HEK-293T; assay: Activation of renilla luciferase expressed in HEK293T cells at 15 uM incubated for 14 to 16 hrs by reporter gene assay; assay type: cell-based; settings: Renilla reniformis
[9] = biological target: T1, Peroxisome proliferator-activated receptor gamma (Homo sapiens); assay: Agonist activity at N-terminal GFP-fused PPARgamma LBD (unknown origin) assessed as biotin-labeled CBP recruitment incubated for 2 hrs by HT-FRET assay relative to rosiglitazone
[10] = biological target: T2, Retinoic acid receptor RXR-alpha (Homo sapiens, UniProt P19793); assay: Agonist activity at GFP RXRalpha LBD (unknown origin) assessed as biotin-labeled SRC-1 recruitment incubated for 2 hrs by HT-FRET assay
T2 sequence (P19793 whole entry): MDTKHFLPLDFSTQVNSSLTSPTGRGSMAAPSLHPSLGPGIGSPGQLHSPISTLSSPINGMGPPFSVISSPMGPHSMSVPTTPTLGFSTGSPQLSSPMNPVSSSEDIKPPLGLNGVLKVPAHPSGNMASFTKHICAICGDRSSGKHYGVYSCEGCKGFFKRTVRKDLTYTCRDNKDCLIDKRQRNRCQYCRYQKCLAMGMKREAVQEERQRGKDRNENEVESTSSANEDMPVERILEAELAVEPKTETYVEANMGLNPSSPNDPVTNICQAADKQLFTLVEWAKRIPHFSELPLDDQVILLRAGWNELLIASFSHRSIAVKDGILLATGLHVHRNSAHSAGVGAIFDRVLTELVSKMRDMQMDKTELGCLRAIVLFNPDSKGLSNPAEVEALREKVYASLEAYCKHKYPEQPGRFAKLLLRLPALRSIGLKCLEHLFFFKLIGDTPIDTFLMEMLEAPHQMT

[11] = biological target: T3, Retinoic acid receptor RXR-alpha (Homo sapiens) (UniProt P19793); assay: Agonist activity at GFP RXRalpha LBD (unknown origin) assessed as biotin-labeled SRC-1 recruitment incubated for 2 hrs by HT-FRET assay relative to SR11237
T3 sequence (whole entry): T2 sequence (P19793 whole entry)

[12] = biological target: T1, Peroxisome proliferator-activated receptor gamma (Homo sapiens); assay: Agonist activity at PPARgamma in human HepG2 cells without THRB knockdown assessed as induction of CD36 expression at 1 uM incubated for 8 hrs in by Western blot analysis; assay type: cell-based
[13] = biological target: T1, Peroxisome proliferator-activated receptor gamma (Homo sapiens); assay: Agonist activity at PPARgamma in human HepG2 cells with THRA knockdown assessed as induction of CD36 expression at 1 uM incubated for 8 hrs in by Western blot analysis; assay type: cell-based
[14] = biological target: T4, Hepatocyte nuclear factor 4-alpha (Homo sapiens) (UniProt P41235); assay: Agonist activity at recombinant human pFA-CMV-fused HNF4alpha LBD expressed in HEK293T cells transfected with pFR-luciferase plasmid and pRL-SV40 plasmid at 0.001 to 0.3 uM incubated for 14 to 16 hrs by dual glo luciferase reporter gene assay; assay type: cell-based; settings: HEK-293T
T4 sequence (whole entry): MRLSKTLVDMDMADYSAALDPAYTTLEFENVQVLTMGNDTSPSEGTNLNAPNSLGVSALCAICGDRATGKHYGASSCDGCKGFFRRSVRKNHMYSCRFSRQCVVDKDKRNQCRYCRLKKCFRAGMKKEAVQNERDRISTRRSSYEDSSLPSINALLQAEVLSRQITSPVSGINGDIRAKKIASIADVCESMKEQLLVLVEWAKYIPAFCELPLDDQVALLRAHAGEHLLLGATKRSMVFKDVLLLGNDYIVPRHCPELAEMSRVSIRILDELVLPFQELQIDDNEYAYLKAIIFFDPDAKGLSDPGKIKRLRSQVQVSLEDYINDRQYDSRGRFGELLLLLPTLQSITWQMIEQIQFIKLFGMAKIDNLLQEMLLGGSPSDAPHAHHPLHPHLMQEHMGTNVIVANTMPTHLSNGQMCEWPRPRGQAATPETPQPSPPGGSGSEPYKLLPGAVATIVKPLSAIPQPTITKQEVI

[15] = biological target: T4, Hepatocyte nuclear factor 4-alpha (Homo sapiens); assay: Agonist activity at recombinant human pFA-CMV-fused HNF4alpha LBD expressed in HEK293T cells transfected with pFR-luciferase plasmid and pRL-SV40 plasmid at 1 uM incubated for 14 to 16 hrs by dual glo luciferase reporter gene assay; assay type: cell-based; settings: HEK-293T

Luciferin 4-monooxygenase (Photinus pyralis), sequence (P08659 whole entry): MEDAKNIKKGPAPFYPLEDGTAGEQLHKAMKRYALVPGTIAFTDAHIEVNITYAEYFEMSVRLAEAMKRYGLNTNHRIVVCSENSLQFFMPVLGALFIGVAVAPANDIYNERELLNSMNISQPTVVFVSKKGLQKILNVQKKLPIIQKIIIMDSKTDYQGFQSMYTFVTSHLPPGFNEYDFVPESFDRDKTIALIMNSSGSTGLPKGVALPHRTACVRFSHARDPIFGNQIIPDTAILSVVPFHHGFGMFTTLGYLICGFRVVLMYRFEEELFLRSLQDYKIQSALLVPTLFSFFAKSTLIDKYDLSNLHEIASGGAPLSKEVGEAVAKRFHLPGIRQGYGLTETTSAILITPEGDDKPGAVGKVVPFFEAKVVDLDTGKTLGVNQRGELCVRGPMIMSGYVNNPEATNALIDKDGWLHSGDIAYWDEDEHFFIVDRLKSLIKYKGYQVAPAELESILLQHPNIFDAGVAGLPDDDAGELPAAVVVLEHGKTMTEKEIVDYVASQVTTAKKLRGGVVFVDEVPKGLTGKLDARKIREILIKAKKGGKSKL

SMILES: N[C@@H](Cc1cc(I)c(Oc2cc(I)c(O)c(I)c2)c(I)c1)C(=O)O [LEVOTHYROXINE]
- Activity [1]: inactive
- Activity [2]: Active
- Activity [3]: inactive
- Activity [4]: Active
- Drug metabolism [5]: 44 ng
- Drug metabolism [6]: 174 ng
- Activity [7]: inactive
- Activity [8]: inactive

SMILES: O=C(O)Cc1cc(I)c(Oc2cc(I)c(O)c(I)c2)c(I)c1 [TETRAC]
- Activity [9]: Active
- EC50 [10]: 4.6 µM
- Activity [11]: 8.2%
- Activity [12]: Active
- Activity [13]: Active
- Activity [14]: inactive
- Activity [15]: Active
